Reference: PMC12518634, “The noncanonical function of liver-type phosphofructokinase potentiates the efficacy of HDAC inhibitors in cancer” (Signal Transduction and Targeted Therapy, 2025)
Counter-ions that a name gives are not always drawn. Like-named read-outs stand apart in the source and are kept apart here.

Key:
1405R3 = test: High-throughput drug screen, CellTiter-Glo viability, 72 h; format: cell-based, human; parameters: AUC: scale not given here; details: 1405R3 DSRT analysis; for AUC: area under the dose-response curve; for DSS: drug sensitivity score; for MIN: lower asymptote of fitted dose-response curve; for SLOPE: slope of fitted dose-response curve; for EC50: CellTiter-Glo viability, 72 h, fitted dose-response curve, Min.Conc.tested 1, Max.Conc.tested 10000, GI50, read-out: EC50
Outline: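 Responses are drug sensitivity scores (efficacy cutoff ≥10), fitted from CellTiter-Glo luminescence. Each drug was given at five concentrations (10 to 0.001 μM, tenfold steps) in duplicate for 72 h. Cells were plated at 3000/well 24 h before dosing.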

783C-6 = test: as above; format: cell-based, human; parameters: AUC: scale not given here; details: for DSS: DSS of DSRT analysis; for AUC: area under the dose-response curve; for MIN: minimum of dose-response curve; for EC50: 72 h, read-out: EC50; for SLOPE: slope of fitted dose-response curve
Outline: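 Cholangiocarcinoma cells were seeded at 3000/well in 384-well plates and dosed after 24 h. Drugs were tested at 10, 1, 0.1, 0.01 and 0.001 μM in duplicate for 72 h, with viability read by CellTiter-Glo luminescence.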

[1] = 783C-6 cells, DSRT analysis, CellTiter-Glo viability, concentrations tested 1 to 10000 (unit inferred), GI50

SMILES	AUC (1405R3)	DSS (1405R3)	MIN (1405R3)	DSS (783C-6; 783C-6 cells)	AUC (783C-6; 783C-6 cells)	MIN (783C-6; 783C-6 cells)	EC50 (783C-6; Homo sapiens) [µM]	SLOPE (1405R3)	SLOPE (783C-6; 783C-6 cells)	EC50 (1405R3; Homo sapiens) [µM]	EC50 (783C-6; [1]) [µM]	EC50 (1405R3) [µM]
COC(=O)c1ccc2c(c1)NC(=O)/C2=C(\Nc1ccc(N(C)C(=O)CN2CCN(C)CC2)cc1)c1ccccc1 [Nintedanib]	13.7	0.8	84	1.6	17.9	72.2	2.29					
N[C@H]1CC[C@H](N[C@@H]2C[C@H]2c2ccccc2)CC1 [ORY-1001]	0.1	0	100	0	14.3	92.7						
O=C(Nc1ccc(O)c(C(=O)O)c1)c1cccc(NC(=O)c2ccco2)c1 [OSS_128167]	8.4	0	94.6	0	7.3	92.5		-0.1	-0.3			
Cc1sc2c(c1C)C(c1ccc(Cl)cc1)=N[C@@H](CC(=O)Nc1ccc(O)cc1)c1nnc(C)n1-2 [OTX015]	90.2	10.4	24.3	0	6.1	90.3				0.649		
O=C(O)C(=O)O.[NH-][C@@H]1CCCC[C@H]1[NH-].[Pt+2] [Oxaliplatin]	20.5	1.7	78.3	3.8	41.2	65.7		-2.2	-1.1		0.659	
COc1ccc(Cn2ccc3ccc(C(=O)NO)cc32)cc1 [PCI-34051]	0.1	0	100	0	2	95.4		-0.1	-0.7			
COc1ccccc1S(=O)(=O)Nc1ccc2c(c1)CN(C)C(=O)N2 [PFI-1]	38.8	4.4	55.4	0	7.2	94.7		-2.5	-2.5			1.35
O=C([C@@H](Cc1cccc(C(F)(F)F)c1)NS(=O)(=O)c1cc(F)c2c(c1)CCNC2)N1CCCC1 [PFI-2 HCl]	15.4	0	84.5	0	2.2	95.2						
O=C(NNc1ccccn1)c1ccccn1 [PFI-90]	8.1	0	93.5	0	10.9	92.2		-0.2	-2.5			
CC(=O)O[C@H]1C(=O)[C@@]2(C)[C@H]([C@H](OC(=O)c3ccccc3)[C@]3(O)C[C@H](OC(=O)[C@H](O)[C@@H](NC(=O)c4ccccc4)c4ccccc4)C(C)=C1C3(C)C)[C@]1(OC(C)=O)CO[C@@H]1C[C@@H]2O [Paclitaxel]	129.3	14.6	37.8	21.1	167.6	52.1	0.0019			0.0821		
CCN1C(=O)N(c2c(F)c(OC)cc(OC)c2F)Cc2cnc3[nH]c(CN4CCOCC4)cc3c21 [Pemigatinib]	7	0	76.8	4.8	62.9	78.8						
Cc1ccc(C(=O)Nc2ccc(CN3CCN(C)CC3)c(C(F)(F)F)c2)cc1C#Cc1cnc2cccnn12 [Ponatinib]	16.5	0.6	87	7	59.9	66.9	0.155					
CCCCc1nc2cc(/C=C/C(=O)NO)ccc2n1CCN(CC)CC [Pracinostat]	75.5	8.7	3.4	7.3	64.3	3.1	2.19			1.66		
Cn1cc(CNCC2CCN(c3ncc(C(=O)NO)cn3)CC2)c2ccccc21 [Quisinostat]	180.7	21.1	0.1	26.9	227.2	1.2	0.05			0.156		
O=C(O)C(Cc1c[nH]c2ccccc12)N1C(=O)c2ccccc2C1=O (stereo not shown) [RG108]	0.1	0	99.8	0	9.4	94		-1.1	-0.1			
Nc1cc(F)ccc1NC(=O)/C=C/c1cnn(C/C=C/c2ccccc2)c1 [RGFP966]	0.2	0	98.3	0	7	93.9						
C[C@@H]1O[C@@H](O[C@H]2[C@H](O[C@H]3[C@H](O[C@H]4CC[C@]5(C)[C@H]6CC=C7[C@@H]8CC(C)(C)CC[C@]8(C(=O)O)CC[C@@]7(C)[C@]6(C)CC[C@H]5C4(C)C)OC[C@H](O)[C@@H]3O)O[C@H](CO)[C@@H](O)[C@@H]2O)[C@H](O)[C@H](O)[C@H]1O [Raddeanin A]	56.1	6.3	1.8	5.9	52.9	3.4		-2.5	-2.5		2.88	2.72
CN(C)Cc1ccc(S(=O)(=O)n2ccc(/C=C/C(=O)NO)c2)cc1 [Resminostat]	45	5	20.3	4.3	39.6	25.4	3			2.77		
O=C(CCCCCCNC(=O)c1cnc(N(c2ccccc2)c2ccccc2)nc1)NO [Ricolinostat]	20.6	1.9	71.1	2.2	22.4	66.7	2.14			1.95		
CC(C)N(CCCNC(=O)Nc1ccc(C(C)(C)C)cc1)C[C@H]1O[C@@H](n2cc(Br)c3c(N)ncnc32)[C@H](O)[C@@H]1O [SGC 0946]	6.1	0	93.6	0	19.5	94.1						
COc1ccc(CCc2nc3cc(-c4c(C)noc4C)ccc3n2C[C@H](C)N2CCOCC2)cc1Cl [SGC-CBP30]	28.3	0	84.6	0	4.1	86.4						
Cc1cc(Nc2ccc(NC(=O)c3ccc(Nc4ccnc5ccccc45)cc3)cc2)nc(N)n1 [SGI-1027]	19.4	0	87.3	0	2.3	92.3		-0.4	-1			
CN1CCC(CNc2ccc3ncc(-c4cccc(OC(F)(F)F)c4)n3n2)CC1 [SGI-1776 free base]	51.4	5.7	1.9	4.9	44.9	10.3		-2.5	-2.5		3.23	3.06
